Measured values: ChEMBL document CHEMBL3870357, “2-Hydroxypyridine-N-oxide-Embedded Aurones as Potent Human Tyrosinase Inhibitors” (ACS Med Chem Lett, 2017)

What was measured:
[1] = target: T1, Tyrosinase (Homo sapiens) (UniProt P14679); settings: Sf9
T1 sequence (whole entry): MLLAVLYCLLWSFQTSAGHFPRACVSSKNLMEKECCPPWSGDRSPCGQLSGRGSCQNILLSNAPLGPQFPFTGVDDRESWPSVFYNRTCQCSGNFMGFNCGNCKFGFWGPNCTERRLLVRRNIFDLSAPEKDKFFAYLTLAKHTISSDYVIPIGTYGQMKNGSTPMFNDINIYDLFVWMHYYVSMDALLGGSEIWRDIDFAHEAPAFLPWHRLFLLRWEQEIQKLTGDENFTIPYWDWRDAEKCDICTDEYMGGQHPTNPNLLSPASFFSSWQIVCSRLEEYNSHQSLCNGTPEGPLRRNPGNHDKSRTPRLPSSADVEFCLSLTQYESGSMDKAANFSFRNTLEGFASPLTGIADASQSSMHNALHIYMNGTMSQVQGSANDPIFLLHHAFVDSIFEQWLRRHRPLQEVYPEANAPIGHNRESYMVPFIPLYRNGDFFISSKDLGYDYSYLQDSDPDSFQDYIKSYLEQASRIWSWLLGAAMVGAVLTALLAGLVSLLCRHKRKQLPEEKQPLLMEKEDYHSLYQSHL

Tyrosinase [2] = target: T2, Tyrosinase (Homo sapiens, UniProt P14679); assay: Inhibition of tyrosinase in human MNT1 cell lysate pretreated prior to addition of L-DOPA as substrate measured after 3 hrs; format: cell-based
T2 sequence (P14679 whole entry): T1 sequence (whole entry)

[3] = Cytotoxicity against human MNT1 cells
Tyrosinase [4] = target: T2, Tyrosinase; assay: Inhibition of tyrosinase in human MNT1 cells assessed as suppression of melanin biosynthesis measured after 96 hrs; format: cell-based
[5] = Inhibition of mushroom TyM1 preincubated for 5 mins followed by addition of L-DOPA as substrate measured for 5 mins by spectroscopic method; design: species or system Agaricus bisporus
Tyrosinase [6] = target: T2, Tyrosinase; assay: Inhibition of recombinant human tyrosinase expressed in baculovirus infected Sf9 cells assessed as diphenolase activity using L-DOPA as substrate by UV-vis spectrophotometry

| SMILES | Kic [1] [µM] | IC50 (Tyrosinase [2]) [µM] | IC50 (Tyrosinase [4]) [µM] | IC50 [5] [µM] | Ki (Tyrosinase [6]) [µM] | IC50 [3] [µM] |
| --- | --- | --- | --- | --- | --- | --- |
| O=c1cc(CO)occ1O [KOJIC ACID] |  |  |  |  |  | > 80000 |
| O=C1/C(=C/c2ccc(O)cc2O)Oc2cc(O)cc(O)c21 |  |  |  | 300 |  |  |
| O=C1/C(=C/c2ccc(=O)n(O)c2)Oc2cc(O)cc(O)c21 | 1.2 | 34 | 119 |  |  | > 500 |

More lines, main results first:

| Kic [1] [µM] | IC50 (Tyrosinase [2]) [µM] | IC50 (Tyrosinase [4]) [µM] | IC50 [5] [µM] | Ki (Tyrosinase [6]) [µM] | SMILES | IC50 [3] [µM] |
| --- | --- | --- | --- | --- | --- | --- |
| 1.02 | 30 | 120 |  |  | O=C1/C(=C/c2ccc(=O)n(O)c2)Oc2cccc(O)c21 | 80 |
|  |  |  | > 1000 |  | O=C1/C(=C/c2ccc(O)cc2O)Oc2cc(O)ccc21 |  |
|  |  |  | 9 |  | O=C1/C(=C/c2ccc(O)cc2O)Oc2cccc(O)c21 |  |
|  | 16.6 | 85.3 | 1.5 | 0.35 | O=C1/C(=C/c2ccc(=O)n(O)c2)Oc2cc(O)ccc21 | > 500 |
